In PubChem BioAssay (NCI):
Where “and” joins values, the source holds several entries; their conditions need not be identical. Identical values can stand only once.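 Interpolation was linear, between the two tested concentrations surrounding the appropriate level; five concentrations were tested over 48 hours in 96-well plates. GI50 is the concentration that inhibits growth by half. TGI: concentration producing complete growth inhibition.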

Assays:
Experiment in all cases: NCI anticancer screen, dose series, 48 h
NCI-H226 lung = tested on: NCI-H226 lung
HOP-92 NSCLC = tested on: HOP-92 NSCLC
SK-OV-3 ovarian = tested on: SK-OV-3 ovarian
CCRF-CEM leukemia = tested on: CCRF-CEM leukemia
OVCAR-3 ovarian = tested on: OVCAR-3 ovarian
SF-295 CNS = tested on: SF-295 CNS
NCI-H460 lung = tested on: NCI-H460 lung
KM12 colon = tested on: KM12 colon
EKVX NSCLC = tested on: EKVX NSCLC
COLO 205 colon = tested on: COLO 205 colon

Compound | GI50 (NCI-H226 lung) | GI50 (HOP-92 NSCLC) | TGI (HOP-92 NSCLC) | GI50 (SK-OV-3 ovarian) | TGI (SK-OV-3 ovarian) | GI50 (CCRF-CEM leukemia) | TGI (CCRF-CEM leukemia) | GI50 (OVCAR-3 ovarian) | GI50 (SF-295 CNS) | TGI (SF-295 CNS) | GI50 (NCI-H460 lung) | TGI (NCI-H460 lung) | GI50 (KM12 colon) | TGI (KM12 colon) | GI50 (EKVX NSCLC) | TGI (EKVX NSCLC) | GI50 (COLO 205 colon) | TGI (COLO 205 colon) | TGI (NCI-H226 lung) | TGI (OVCAR-3 ovarian)
COc1cc(OC)cc(N2CCN(C(=O)Nc3nc4cc(F)ccc4nc3OC)CC2)c1 | 0.197 µM and 0.0515 µM and 0.136 µM | < 0.01 µM and 0.0062 µM | 19.3 µM and 3.83 µM and 6.77 µM | 0.0406 µM and 0.0838 µM and 0.033 µM | > 47.8 µM and 17.1 µM | 0.0899 µM and 0.0338 µM and 0.0345 µM | > 100 µM | 0.0232 µM and 0.0252 µM and 0.0219 µM | < 0.0184 µM and 0.0255 µM | 20.6 µM | 0.0323 µM and 0.0358 µM and 0.0339 µM | 25.3 µM and 14.9 µM | 0.0282 µM and 0.0358 µM and 0.0302 µM | > 100 µM | 0.0543 µM and 0.345 µM and 0.0636 µM | > 87.1 µM and 66.6 µM | 0.0267 µM and 0.0321 µM and 0.0266 µM | 0.0831 µM and 0.123 µM and 0.0771 µM |  | 
O=C(OCc1nc2ccc(Br)cc2c(=O)n1-c1ccccc1)c1ccccc1O |  |  | > 100 µM |  | > 100 µM |  | > 100 µM |  |  | > 100 µM |  | > 100 µM |  | > 100 µM |  | > 100 µM |  | > 100 µM | > 100 µM | > 100 µM
CCCCCCCCCCCCNC(=O)[C@H]1CSC(c2ccc(OC)c(F)c2)N1 (some centres undefined) | 1.42 µM | 1.69 µM | 3.24 µM | 1.96 µM | 3.43 µM | 0.225 µM | 0.579 µM | 1.45 µM | 1.72 µM | 3.25 µM | 1.74 µM | 3.63 µM | 0.335 µM | 1.14 µM | 0.678 µM | 2 µM | 1.94 µM | 3.84 µM | 3.21 µM | 3.26 µM
Nc1ncnc2c1ncn2Cc1ccc(C23CC4CC(CC(C4)C2)C3)c(O)c1 | > 100 µM | 16.4 µM | 37.5 µM | 36.3 µM | > 100 µM | 3.97 µM | > 100 µM | 17.2 µM | 18.3 µM | > 100 µM | 11.8 µM | > 100 µM | 13.7 µM | > 100 µM | 33.4 µM | > 100 µM | 29.1 µM | > 100 µM | > 100 µM | > 100 µM
CC(C)(C)NCCC(O)c1cc(C(F)(F)F)nc2c(C(F)(F)F)cccc12 (centres undefined) |  |  | 26.2 µM |  | 30.3 µM |  | 30.5 µM |  |  | 22.6 µM |  | 16.8 µM |  | 7.58 µM |  | 27.2 µM |  | 25.5 µM | 33.4 µM | 20.4 µM
O=[N+]([O-])O.[NH-]C1CCCCC1[NH-].[NH-]C1CCCCC1[NH-].[NH-]C1CCCCC1[NH-].[OH-].[OH-].[OH-].[Pt+4].[Pt+4].[Pt+4] (centres undefined) | 1.37 µM | 8.21 µM | > 61.2 µM | 19.6 µM | > 100 µM | 0.193 µM | 19.2 µM | 2.16 µM | 0.971 µM | > 66.8 µM | 0.241 µM | 7.07 µM | 4.05 µM | > 100 µM | 30.1 µM | > 100 µM | 0.631 µM | 27.9 µM | 27.5 µM | > 68.1 µM
C/C(=N\NC(=S)N1CCC(C2CCN(C(=S)N/N=C(\C)c3ccccn3)CC2)CC1)c1ccccn1 |  |  | > 100 µM |  | > 100 µM |  | > 100 µM |  |  | > 100 µM |  | > 100 µM |  | > 100 µM |  | > 100 µM |  | > 100 µM | > 100 µM | > 100 µM
O=C(NO)C(O)C(O)C(O)C(O)CO (centres undefined) | > 71.5 µM and 50.4 µM | > 100 µM | > 100 µM | > 100 µM | > 100 µM | 50.6 µM | > 100 µM | > 100 µM |  | > 100 µM | 54.6 µM and 37.9 µM | > 100 µM | > 100 µM and 53.2 µM | > 100 µM | > 100 µM | > 100 µM | > 100 µM and 51.5 µM | > 100 µM | > 100 µM | > 100 µM
CC1SC2(CCCCC2)N(NC(=O)c2[nH]c3ccc(F)cc3c2-c2ccccc2)C1=O (centres undefined) | > 100 µM | 16.9 µM | 59.9 µM | > 100 µM | > 100 µM | > 100 µM | > 100 µM | 25.2 µM | 35.8 µM | > 100 µM | > 100 µM | > 100 µM | 63.7 µM | > 100 µM | > 100 µM | > 100 µM | > 100 µM | > 100 µM | > 100 µM | > 100 µM
CCCCCCCCCCCCCCCC(=O)N[C@H]1CCc2cc(OC)c(OC)c(OC)c2-c2ccc(SC)c(=O)cc21 | 2.63 µM | 0.564 µM | 11.3 µM and 5.32 µM |  | 6.19 µM | 2.68 µM | 11.4 µM and 15.3 µM | 0.53 µM | 1.12 µM | 8.89 µM and 5.44 µM | 2.97 µM | 2.15 µM and 10.1 µM | 0.845 µM | 8.4 µM and 3.73 µM | 4.22 µM |  |  | 0.494 µM and 0.391 µM | 0.656 µM and 5.65 µM | 0.642 µM and 3.01 µM
C=C(CC1(CC(=C)c2ccc(C(=O)O)cc2)C(=O)N(C)C(=O)N(C)C1=O)c1ccc(C(=O)O)cc1 | > 100 µM | 78.4 µM | > 100 µM | 6.02 µM | 58.7 µM | 65.2 µM | > 100 µM | 96.6 µM | > 100 µM | > 100 µM | > 100 µM | > 100 µM | > 100 µM | > 100 µM | > 100 µM | > 100 µM | 29.1 µM | > 100 µM | > 100 µM | > 100 µM
CCN(CC)CCOc1ccc(C2=C(c3ccccc3)CCc3cc(OC)ccc32)cc1 | 3.07 µM | 3.64 µM | 10.9 µM | 3.22 µM | 13.6 µM | 5.59 µM | > 49.3 µM | 5.64 µM | 1.59 µM | 3.27 µM | 1.84 µM | 3.52 µM | 2.46 µM | 6.85 µM | 3.44 µM | 14 µM | 1.53 µM | 3.04 µM | 12.6 µM | 15.7 µM
C#Cc1cccc(Nc2ncnc3ccc(-c4cncc(NS(C)(=O)=O)c4)cc23)c1 | 2.99 µM | 0.447 µM | 3.73 µM | 1.89 µM | 5.71 µM | 0.82 µM | 7.31 µM | 1.15 µM | 2.47 µM | 10.5 µM | 3.46 µM | 13.6 µM | 2.33 µM | 6.52 µM | 1.12 µM | 4.6 µM | 1.68 µM | 3.94 µM | 16.8 µM | 3.25 µM
COc1cc(/C=C\c2cccnc2Nc2ccccc2)cc(OC)c1OC | 10.8 µM | 0.947 µM | 9.17 µM | 11.1 µM | > 100 µM | 7.08 µM | > 100 µM | 7.45 µM | 4.92 µM | 35.9 µM | 3.61 µM | 26.7 µM | 6.5 µM | > 100 µM | 7.55 µM | > 100 µM | 4.44 µM | 16.2 µM | 33.2 µM | 28.7 µM
CCC1NCC(=O)c2c1[nH]c1ccccc21 (centres undefined) |  |  | > 100 µM |  | > 100 µM |  | > 100 µM |  |  | > 100 µM |  | > 100 µM |  | > 100 µM |  | > 100 µM |  | > 100 µM | > 100 µM | > 100 µM
CCOC(=O)C1=C(c2ccccc2)N(Cc2ccccc2)C2(O)C=CC(=O)C3C(=O)N(c4ccccc4)C(=O)C132 (centres undefined) | 2.25 µM | 2.03 µM | 5.54 µM | 3.29 µM | 10.7 µM | 1.53 µM | 7.03 µM | 2.11 µM | 2.9 µM | 11.5 µM | 1.53 µM | 3.49 µM | 1.74 µM | 3.21 µM | 2.43 µM | 6.51 µM | 1.74 µM | 3.45 µM | 4.87 µM | 4.33 µM
O=C(CN=Cc1cccs1)CSC(c1ccccc1)c1ccccc1 | 24 µM | 20.7 µM | 51.1 µM | 16.3 µM | 58.2 µM | 20.8 µM | > 100 µM | 17.6 µM | 35.1 µM | > 100 µM | 24.8 µM | 70.1 µM | 21 µM | 52.5 µM | 26.2 µM | 96.9 µM | 11.7 µM | 24 µM | 66 µM | 48.1 µM
